Source: ChEMBL document CHEMBL1129255, “Identification of a retinoic acid receptor alpha subtype specific agonist” (J Med Chem, 1996)

Tests used:
[1] = molecular target: T1, Retinoic acid receptor gamma (Homo sapiens, UniProt P13631); test: Binding affinity for baculovirus-expressed Retinoic acid receptor RAR gamma
T1 sequence (P13631 whole entry): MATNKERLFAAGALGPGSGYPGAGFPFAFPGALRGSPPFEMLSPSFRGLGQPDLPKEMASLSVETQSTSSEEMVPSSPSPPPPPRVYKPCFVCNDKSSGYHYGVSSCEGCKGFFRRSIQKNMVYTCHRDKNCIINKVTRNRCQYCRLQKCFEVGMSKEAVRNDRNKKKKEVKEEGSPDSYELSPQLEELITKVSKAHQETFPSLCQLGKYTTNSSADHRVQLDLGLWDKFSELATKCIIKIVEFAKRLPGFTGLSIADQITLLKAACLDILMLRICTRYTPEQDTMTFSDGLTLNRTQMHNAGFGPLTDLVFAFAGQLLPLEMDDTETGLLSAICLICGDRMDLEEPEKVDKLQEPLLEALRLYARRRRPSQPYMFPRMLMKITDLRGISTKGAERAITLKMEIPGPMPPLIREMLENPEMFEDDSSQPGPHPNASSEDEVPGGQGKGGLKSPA

[2] = molecular target: T2, Retinoic acid receptor beta (Homo sapiens, UniProt P10826); test: Binding affinity for baculovirus-expressed Retinoic acid receptor RAR beta
T2 sequence (P10826 whole entry): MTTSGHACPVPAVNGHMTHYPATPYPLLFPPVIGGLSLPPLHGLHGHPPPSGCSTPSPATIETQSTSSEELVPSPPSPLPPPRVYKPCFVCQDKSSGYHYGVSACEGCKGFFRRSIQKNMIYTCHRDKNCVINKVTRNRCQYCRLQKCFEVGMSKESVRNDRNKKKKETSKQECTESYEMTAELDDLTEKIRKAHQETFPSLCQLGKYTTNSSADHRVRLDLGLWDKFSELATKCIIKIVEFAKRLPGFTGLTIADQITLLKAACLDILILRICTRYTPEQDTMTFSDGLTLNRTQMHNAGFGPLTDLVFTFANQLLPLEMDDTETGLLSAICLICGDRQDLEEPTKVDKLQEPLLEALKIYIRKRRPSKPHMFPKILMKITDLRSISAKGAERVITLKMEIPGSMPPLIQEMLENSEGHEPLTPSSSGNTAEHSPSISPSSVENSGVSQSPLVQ

[3] = molecular target: T3, Retinoic acid receptor alpha (Homo sapiens, UniProt P10276); test: Binding affinity for baculovirus-expressed Retinoic acid receptor RAR alpha
T3 sequence (P10276 whole entry): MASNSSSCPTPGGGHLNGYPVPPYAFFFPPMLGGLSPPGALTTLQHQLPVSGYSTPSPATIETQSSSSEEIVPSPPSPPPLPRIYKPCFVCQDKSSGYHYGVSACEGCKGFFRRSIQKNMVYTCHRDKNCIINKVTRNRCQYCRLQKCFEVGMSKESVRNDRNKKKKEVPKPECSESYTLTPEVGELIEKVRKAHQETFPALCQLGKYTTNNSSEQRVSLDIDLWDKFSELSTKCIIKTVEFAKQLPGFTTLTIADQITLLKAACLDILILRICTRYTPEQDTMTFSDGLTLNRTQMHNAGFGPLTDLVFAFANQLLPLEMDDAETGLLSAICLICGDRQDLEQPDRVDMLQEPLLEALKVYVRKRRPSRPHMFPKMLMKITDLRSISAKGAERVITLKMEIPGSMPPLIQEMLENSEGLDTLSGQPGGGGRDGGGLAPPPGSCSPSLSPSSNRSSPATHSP

Row | SMILES | Kd [1] [µM] | Kd [2] [µM] | Kd [3] [µM]
1 | CC1(C)CCC(C)(C)c2c1cc(C(=O)Nc1cc(F)c(C(=O)O)c(F)c1)c(O)c2Br | > 30 | 17.4 | 0.0084
2 | CC1(C)CCC(C)(C)c2c1cc(C(=O)Nc1ccc(C(=O)O)c(F)c1)c(O)c2Br | > 30 | 3.04 | 0.0044
